Test results as given in PMC11413853, “Discovery of VU6007496: Challenges in the Development of an M1 Positive Allosteric Modulator Backup Candidate” (ACS Chemical Neuroscience, 2024).
pEC50: −log10 of the molar value.

How the values were obtained:
mouse M1 = target: T1, mouse M1 (Mus musculus, UniProt P12657); test: Calcium mobilization assay, mouse M1 PAM; type: cell-based; conditions: PAM mode
T1 construct: expressed in transfected cells; host or cells: CHO (stated in general for all functional cell-based assays)

rats = test: Novel object recognition (NOR) test; type: in vivo, rat
Protocol: Novel Object Recognition Task
Rats were habituated for 10 min for 2 consecutive days in an empty novel object recognition (NOR) arena consisting of dark-colored plexiglass box (40 × 64 × 33 cm3). On day 3, rats were administered vehicle (0.5% natrasol/0.015% Tween80) or M1 PAM (0.1-3 mg/kg, p.o.., 10 mL/kg, n = 15-18) and returned to their home cage for 30 min. Rats were then placed in the NOR arena containing two identical objects for 10 min. Following the exposure period, rats were placed back into their home cages for 24 h. The rats were then returned to the arena in which one of the previously exposed (familiar) objects was replaced by a novel object and were video recorded for 5 min while they explored the two objects. Time spent exploring each object was scored by an observer blinded to the experimental conditions and the recognition index was calculated as [(time spent exploring novel object) – (time spent exploring familiar object)]/total time exploring objects.
Supplemental field electrophysiology methods
Recording pipettes were constructed from thin-walled borosilicate capillary glass tubing (I.D.=1.17 mm, O.D. 1.50 mm; Warner Instruments, Hamden, CT), pulled with a horizontal pipette puller (P-97 Sutter Instrument Co., Novata, CA) to a resistance of 1-3MΩ when filled with ACSF. […]

Hepatocyte MET ID, rat = type: in vitro ADME; conditions: 4-h incubation
Description: More concerning were the results generated via outsourced multispecies hepatocyte MET ID, which were drastically different than the liver S9MET ID. The extent of metabolism for VU6007496 with rat, dog, monkey and human hepatocytes was 64.7, 51.5, 63.9 and 99.5%, respectively (Figure 8). […] In human hepatocytes, PAM 11 was metabolized primarily to Metabolite A (24), the result of oxidative N-demethylation of the southern pyrazole. The other minor metabolites were oxidation on the tetrahydropyran moiety and included ring opening (Metabolite F, 25).[21]

Adenosine A1 = test: Eurofins radioligand binding; parameters: species or system Human; conditions: specific binding
Adrenergic α1A = test: Eurofins radioligand binding; parameters: species or system Human; conditions: specific binding
Adrenergic α1D = test: Eurofins radioligand binding; parameters: species or system Human; conditions: specific binding
[1] = test system: Calcium Channel L-Type, Dihydropyridine; test: Eurofins radioligand binding; parameters: species or system Rat; conditions: specific binding
Cannabinoid CB1 = test: Eurofins radioligand binding; parameters: species or system Human; conditions: specific binding
Dopamine D1 = test: Eurofins radioligand binding; parameters: species or system Human; conditions: specific binding
Dopamine D4.4 = test: Eurofins radioligand binding; parameters: species or system Human; conditions: specific binding
Estrogen ERα = test: Eurofins radioligand binding; parameters: species or system Human; conditions: specific binding
GABAA, Muscimol, Central = test: Eurofins radioligand binding; parameters: species or system Rat; conditions: specific binding
Glutamate, NMDA, Agonism = test: Eurofins radioligand binding; parameters: species or system Rat; conditions: specific binding
Muscarinic M1 = test: Eurofins radioligand binding; parameters: species or system Human; conditions: specific binding
[2] = test system: Nicotinic Acetylcholine α1, Bungarotoxin; test: Eurofins radioligand binding; parameters: species or system Human; conditions: specific binding
[3] = test system: Platelet Activating Factor (PAF); test: Eurofins radioligand binding; parameters: species or system Human; conditions: specific binding
Potassium Channel hERG = test: Eurofins radioligand binding; conditions: human, specific binding
Prostanoid EP4 = test: Eurofins radioligand binding; parameters: species or system Human; conditions: specific binding
Purinergic P2X = test: Eurofins radioligand binding; parameters: species or system Rat; conditions: specific binding
Serotonin (5-HT2B) = test: Eurofins radioligand binding; parameters: species or system Human; conditions: specific binding
Serotonin (5-HT3) = test: Eurofins radioligand binding; parameters: species or system Human; conditions: specific binding
Sigma σ1 = test: Eurofins radioligand binding; parameters: species or system Human; conditions: specific binding
Tachykinin NK1 = test: Eurofins radioligand binding; parameters: species or system Human; conditions: specific binding
hCav3.2 = test system: T2, hCav3.2; test: Ion channel current (Charles River Study 200609.WVN); type: cell-based, human; conditions: 10 μM; n 4
T2 construct: Charles River
Description: (§1) Table S2. Effects of VU6007496 on Ion Channel Current (Charles River Study 200609.WVN)
(§2) Ion Channel Conc Mean % Standard Standard n Individual Data
(§3) (μM) Inhibition Deviation Error Points (% Inhibition)

hKvLQT1/minK = test system: T3, hKvLQT1/minK; test: as above; type: cell-based, human; conditions: 10 μM; n 4
T3 construct: Charles River
Description: as §1, §2, §3

T1 sequence (P12657 whole entry): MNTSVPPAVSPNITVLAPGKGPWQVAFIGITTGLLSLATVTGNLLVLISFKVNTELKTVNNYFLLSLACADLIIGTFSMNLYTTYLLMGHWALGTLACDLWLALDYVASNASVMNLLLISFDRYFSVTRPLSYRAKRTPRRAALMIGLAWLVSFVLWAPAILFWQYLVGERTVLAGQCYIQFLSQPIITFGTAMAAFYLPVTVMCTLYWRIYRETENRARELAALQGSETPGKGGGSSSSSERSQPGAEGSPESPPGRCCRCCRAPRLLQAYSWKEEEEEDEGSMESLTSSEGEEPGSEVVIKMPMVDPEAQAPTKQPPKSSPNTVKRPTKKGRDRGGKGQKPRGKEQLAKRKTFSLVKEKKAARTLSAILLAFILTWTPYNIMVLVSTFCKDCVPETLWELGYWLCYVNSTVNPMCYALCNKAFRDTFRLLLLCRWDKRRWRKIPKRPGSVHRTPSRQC

Cn1ccc(-c2ccc(Cc3cc(C(=O)NC4CCOCC4)nc4ccn(C)c34)cc2)n1 [compound 11]
pEC50 (mouse M1): 7.04
mouse M1 PAM ACh max (mouse M1): 66%
effect on recognition memory (NOR) (rats; rats, 0.1, 0.3, 1, and 3 mg/kg p.o., 30 min pretreatment, assessed 24 h later): dose-dependently enhanced recognition memory
minimum effective dose (MED) in novel object recognition (rats; rats, p.o.): 3 mg/kg
extent of metabolism, rat hepatocytes (Hepatocyte MET ID, rat): 64.7%
% Inhibition at 10 µM (Adenosine A1): 10%
% Inhibition at 10 µM (Adrenergic α1A): -1%
% Inhibition at 10 µM (Adrenergic α1D): -6%
% Inhibition at 10 µM [1]: -8%
% Inhibition at 10 µM (Cannabinoid CB1): 5%
% Inhibition at 10 µM (Dopamine D1): 5%
% Inhibition at 10 µM (Dopamine D4.4): 1%
% Inhibition at 10 µM (Estrogen ERα): 5%
% Inhibition at 10 µM (GABAA, Muscimol, Central): -1%
% Inhibition at 10 µM (Glutamate, NMDA, Agonism): 0%
% Inhibition at 10 µM (Muscarinic M1): -8%
% Inhibition at 10 µM [2]: -3%
% Inhibition at 10 µM [3]: -13%
inhibition at 10 µM (Potassium Channel hERG): 11%
% Inhibition at 10 µM (Prostanoid EP4): 16%
% Inhibition at 10 µM (Purinergic P2X): 17%
% Inhibition at 10 µM (Serotonin (5-HT2B)): 7%
% Inhibition at 10 µM (Serotonin (5-HT3)): -3%
% Inhibition at 10 µM (Sigma σ1): -8%
% Inhibition at 10 µM (Tachykinin NK1): 8%
Mean % Inhibition (hCav3.2): 4.2%
Mean % Inhibition (hKvLQT1/minK): 13.5%
